Numbers after ± are expanded uncertainties.
Assay: xn = mol fraction of the nth substance listed
Settings: Liquid, Vibrating tube method

For `CCCCCCCC` [octane] + CCCCCC, which mass density (342.93 K, 1000 kPa, x2 = 0.5749) is on record?
The mass density was 640.49 ± 0.27 kg/m3.

What about the mass density (342.93 K, 2000 kPa, x2 = 0.5749) of the same compound?
The mass density was 641.81 ± 0.28 kg/m3.

What about the mass density (342.93 K, 3000 kPa, x2 = 0.5749) of the same compound?
Its mass density is 643.05 ± 0.29 kg/m3.

What about the mass density (342.93 K, 4000 kPa, x2 = 0.5749) of the same compound?
The mass density was 644.29 ± 0.3 kg/m3.

What about the mass density (342.93 K, 5000 kPa, x2 = 0.5749) of the same compound?
Its mass density is 645.58 ± 0.31 kg/m3.

What about the mass density (342.93 K, 6000 kPa, x2 = 0.5749) of the same compound?
The mass density was 646.83 ± 0.32 kg/m3.

What about the mass density (342.93 K, 7000 kPa, x2 = 0.5749) of the same compound?
Its mass density is 648.05 ± 0.32 kg/m3.

And the mass density (342.93 K, 8000 kPa, x2 = 0.5749)?
The mass density was 649.28 ± 0.33 kg/m3.

And the mass density (342.93 K, 9000 kPa, x2 = 0.5749)?
The mass density was 650.49 ± 0.34 kg/m3.

And the mass density (342.93 K, 10000 kPa, x2 = 0.5749)?
Its mass density is 651.67 ± 0.35 kg/m3.

What about the mass density (342.93 K, 11000 kPa, x2 = 0.5749) of the same compound?
The mass density was 652.87 ± 0.36 kg/m3.

And the mass density (342.93 K, 12000 kPa, x2 = 0.5749)?
Its mass density is 654.03 ± 0.37 kg/m3.

And the mass density (342.93 K, 13000 kPa, x2 = 0.5749)?
Its mass density is 655.19 ± 0.38 kg/m3.

And the mass density (342.93 K, 14000 kPa, x2 = 0.5749)?
The mass density was 656.31 ± 0.39 kg/m3.

And the mass density (342.93 K, 15000 kPa, x2 = 0.5749)?
Its mass density is 657.42 ± 0.4 kg/m3.

And the mass density (342.93 K, 16000 kPa, x2 = 0.5749)?
Its mass density is 658.5 ± 0.41 kg/m3.

What about the mass density (342.93 K, 17000 kPa, x2 = 0.5749) of the same compound?
Its mass density is 659.57 ± 0.42 kg/m3.

What about the mass density (342.93 K, 18000 kPa, x2 = 0.5749) of the same compound?
Its mass density is 660.6 ± 0.43 kg/m3.

What about the mass density (342.93 K, 19000 kPa, x2 = 0.5749) of the same compound?
Its mass density is 661.62 ± 0.44 kg/m3.

What about the mass density (342.93 K, 20000 kPa, x2 = 0.5749) of the same compound?
The mass density was 662.6 ± 0.45 kg/m3.

And the mass density (342.93 K, 21000 kPa, x2 = 0.5749)?
The mass density was 663.59 ± 0.46 kg/m3.

And the mass density (342.93 K, 22000 kPa, x2 = 0.5749)?
The mass density was 664.52 ± 0.47 kg/m3.

And the mass density (342.93 K, 23000 kPa, x2 = 0.5749)?
The mass density was 665.48 ± 0.48 kg/m3.

And the mass density (342.93 K, 24000 kPa, x2 = 0.5749)?
Its mass density is 666.39 ± 0.49 kg/m3.

And the mass density (342.93 K, 25000 kPa, x2 = 0.5749)?
The mass density was 667.28 ± 0.5 kg/m3.

And the mass density (342.94 K, 1000 kPa, x2 = 0.2199)?
The mass density was 655.33 ± 0.27 kg/m3.

And the mass density (342.94 K, 2000 kPa, x2 = 0.2199)?
Its mass density is 656.52 ± 0.27 kg/m3.

And the mass density (342.94 K, 3000 kPa, x2 = 0.2199)?
The mass density was 657.67 ± 0.28 kg/m3.

And the mass density (342.94 K, 4000 kPa, x2 = 0.2199)?
The mass density was 658.87 ± 0.29 kg/m3.

And the mass density (342.94 K, 5000 kPa, x2 = 0.2199)?
The mass density was 660.02 ± 0.3 kg/m3.

What about the mass density (342.94 K, 6000 kPa, x2 = 0.2199) of the same compound?
Its mass density is 661.18 ± 0.31 kg/m3.

What about the mass density (342.94 K, 7000 kPa, x2 = 0.2199) of the same compound?
Its mass density is 662.34 ± 0.31 kg/m3.

And the mass density (342.94 K, 8000 kPa, x2 = 0.2199)?
Its mass density is 663.49 ± 0.32 kg/m3.

What about the mass density (342.94 K, 9000 kPa, x2 = 0.2199) of the same compound?
The mass density was 664.6 ± 0.33 kg/m3.

And the mass density (342.94 K, 10000 kPa, x2 = 0.2199)?
The mass density was 665.73 ± 0.34 kg/m3.

And the mass density (342.94 K, 11000 kPa, x2 = 0.2199)?
The mass density was 666.84 ± 0.35 kg/m3.

What about the mass density (342.94 K, 12000 kPa, x2 = 0.2199) of the same compound?
The mass density was 667.93 ± 0.36 kg/m3.

What about the mass density (342.94 K, 13000 kPa, x2 = 0.2199) of the same compound?
Its mass density is 669.01 ± 0.37 kg/m3.

And the mass density (342.94 K, 14000 kPa, x2 = 0.2199)?
The mass density was 670.06 ± 0.38 kg/m3.

And the mass density (342.94 K, 15000 kPa, x2 = 0.2199)?
The mass density was 671.09 ± 0.39 kg/m3.

And the mass density (342.94 K, 16000 kPa, x2 = 0.2199)?
Its mass density is 672.1 ± 0.4 kg/m3.

What about the mass density (342.94 K, 17000 kPa, x2 = 0.2199) of the same compound?
Its mass density is 673.1 ± 0.4 kg/m3.

What about the mass density (342.94 K, 18000 kPa, x2 = 0.2199) of the same compound?
Its mass density is 674.07 ± 0.41 kg/m3.

What about the mass density (342.94 K, 19000 kPa, x2 = 0.2199) of the same compound?
The mass density was 675.02 ± 0.42 kg/m3.

What about the mass density (342.94 K, 20000 kPa, x2 = 0.2199) of the same compound?
The mass density was 675.95 ± 0.43 kg/m3.

What about the mass density (342.94 K, 21000 kPa, x2 = 0.2199) of the same compound?
Its mass density is 676.87 ± 0.44 kg/m3.

What about the mass density (342.94 K, 22000 kPa, x2 = 0.2199) of the same compound?
The mass density was 677.76 ± 0.45 kg/m3.

What about the mass density (342.94 K, 23000 kPa, x2 = 0.2199) of the same compound?
The mass density was 678.64 ± 0.46 kg/m3.

And the mass density (342.94 K, 24000 kPa, x2 = 0.2199)?
Its mass density is 679.49 ± 0.47 kg/m3.

What about the mass density (342.94 K, 25000 kPa, x2 = 0.2199) of the same compound?
The mass density was 680.34 ± 0.48 kg/m3.

What about the mass density (342.98 K, 1000 kPa, x2 = 0.9308) of the same compound?
Its mass density is 619.48 ± 0.28 kg/m3.

What about the mass density (342.98 K, 2000 kPa, x2 = 0.9308) of the same compound?
Its mass density is 620.92 ± 0.29 kg/m3.

What about the mass density (342.98 K, 3000 kPa, x2 = 0.9308) of the same compound?
The mass density was 622.34 ± 0.3 kg/m3.

And the mass density (342.98 K, 4000 kPa, x2 = 0.9308)?
The mass density was 623.76 ± 0.31 kg/m3.

And the mass density (342.98 K, 5000 kPa, x2 = 0.9308)?
Its mass density is 625.17 ± 0.32 kg/m3.

What about the mass density (342.98 K, 6000 kPa, x2 = 0.9308) of the same compound?
The mass density was 626.56 ± 0.33 kg/m3.

And the mass density (342.98 K, 7000 kPa, x2 = 0.9308)?
Its mass density is 627.93 ± 0.34 kg/m3.

What about the mass density (342.98 K, 8000 kPa, x2 = 0.9308) of the same compound?
The mass density was 629.29 ± 0.35 kg/m3.

And the mass density (342.98 K, 9000 kPa, x2 = 0.9308)?
Its mass density is 630.63 ± 0.36 kg/m3.

And the mass density (342.98 K, 10000 kPa, x2 = 0.9308)?
Its mass density is 631.94 ± 0.37 kg/m3.

And the mass density (342.98 K, 11000 kPa, x2 = 0.9308)?
The mass density was 633.24 ± 0.38 kg/m3.

And the mass density (342.98 K, 12000 kPa, x2 = 0.9308)?
Its mass density is 634.53 ± 0.39 kg/m3.

What about the mass density (342.98 K, 13000 kPa, x2 = 0.9308) of the same compound?
Its mass density is 635.77 ± 0.4 kg/m3.

And the mass density (342.98 K, 14000 kPa, x2 = 0.9308)?
Its mass density is 637.01 ± 0.41 kg/m3.

What about the mass density (342.98 K, 15000 kPa, x2 = 0.9308) of the same compound?
Its mass density is 638.23 ± 0.42 kg/m3.

And the mass density (342.98 K, 16000 kPa, x2 = 0.9308)?
Its mass density is 639.42 ± 0.43 kg/m3.

And the mass density (342.98 K, 17000 kPa, x2 = 0.9308)?
Its mass density is 640.57 ± 0.44 kg/m3.

And the mass density (342.98 K, 18000 kPa, x2 = 0.9308)?
The mass density was 641.7 ± 0.45 kg/m3.

What about the mass density (342.98 K, 19000 kPa, x2 = 0.9308) of the same compound?
Its mass density is 642.81 ± 0.46 kg/m3.

What about the mass density (342.98 K, 20000 kPa, x2 = 0.9308) of the same compound?
Its mass density is 643.91 ± 0.47 kg/m3.

What about the mass density (342.98 K, 21000 kPa, x2 = 0.9308) of the same compound?
The mass density was 644.95 ± 0.48 kg/m3.

What about the mass density (342.98 K, 22000 kPa, x2 = 0.9308) of the same compound?
The mass density was 645.97 ± 0.49 kg/m3.

And the mass density (342.98 K, 23000 kPa, x2 = 0.9308)?
The mass density was 646.98 ± 0.5 kg/m3.

What about the mass density (342.98 K, 24000 kPa, x2 = 0.9308) of the same compound?
Its mass density is 647.95 ± 0.52 kg/m3.

What about the mass density (342.98 K, 25000 kPa, x2 = 0.9308) of the same compound?
Its mass density is 648.91 ± 0.53 kg/m3.

And the mass density (342.99 K, 1000 kPa, x2 = 0.1654)?
Its mass density is 657.36 ± 0.27 kg/m3.

And the mass density (342.99 K, 2000 kPa, x2 = 0.1654)?
The mass density was 658.52 ± 0.27 kg/m3.

And the mass density (342.99 K, 3000 kPa, x2 = 0.1654)?
The mass density was 659.68 ± 0.28 kg/m3.

What about the mass density (342.99 K, 4000 kPa, x2 = 0.1654) of the same compound?
Its mass density is 660.84 ± 0.29 kg/m3.

What about the mass density (342.99 K, 5000 kPa, x2 = 0.1654) of the same compound?
The mass density was 662.01 ± 0.3 kg/m3.

And the mass density (342.99 K, 6000 kPa, x2 = 0.1654)?
Its mass density is 663.15 ± 0.3 kg/m3.

What about the mass density (342.99 K, 7000 kPa, x2 = 0.1654) of the same compound?
The mass density was 664.27 ± 0.31 kg/m3.

And the mass density (342.99 K, 8000 kPa, x2 = 0.1654)?
Its mass density is 665.4 ± 0.32 kg/m3.

And the mass density (342.99 K, 9000 kPa, x2 = 0.1654)?
The mass density was 666.53 ± 0.33 kg/m3.

And the mass density (342.99 K, 10000 kPa, x2 = 0.1654)?
Its mass density is 667.62 ± 0.34 kg/m3.

What about the mass density (342.99 K, 11000 kPa, x2 = 0.1654) of the same compound?
The mass density was 668.73 ± 0.35 kg/m3.

What about the mass density (342.99 K, 12000 kPa, x2 = 0.1654) of the same compound?
Its mass density is 669.8 ± 0.36 kg/m3.

And the mass density (342.99 K, 13000 kPa, x2 = 0.1654)?
Its mass density is 670.86 ± 0.37 kg/m3.

And the mass density (342.99 K, 14000 kPa, x2 = 0.1654)?
Its mass density is 671.91 ± 0.38 kg/m3.

And the mass density (342.99 K, 15000 kPa, x2 = 0.1654)?
The mass density was 672.94 ± 0.38 kg/m3.

And the mass density (342.99 K, 16000 kPa, x2 = 0.1654)?
Its mass density is 673.96 ± 0.39 kg/m3.

What about the mass density (342.99 K, 17000 kPa, x2 = 0.1654) of the same compound?
Its mass density is 674.95 ± 0.4 kg/m3.

What about the mass density (342.99 K, 18000 kPa, x2 = 0.1654) of the same compound?
Its mass density is 675.92 ± 0.41 kg/m3.

Reference: the NIST ThermoML archive (doi:10.1021/je200721d)
